# Tested on: patients with moderate to severe atopic dermatitis
# Assay: Phase II study of oral DS107G vs placebo: IGA, EASI, SCORAD, pruritus VAS, BSA, POEM, DLQI
# Assay type: in vivo, human
# Parameters: key to EASI, Actual, Median / EASI, Actual, Mean: EASI composite score, range 0-72
# Conditions: for Percentage Change of BSA Levels From Baseline, Mean / Percentage Change of DLQI Scores From Baseline, Mean / Percentage Change of EASI Scores From Baseline, Mean / Percentage Change of IGA Scores From Baseline, Mean / Percentage Change of POEM Scores From Baseline, Mean / Percentage Change of SCORAD Levels From Baseline, Mean / Percentage Change of VAS Scores From Baseline, Mean: ITT Population
# Method: A randomized, double-blind, placebo-controlled, phase II study was performed to assess the efficacy and safety of orally administered DS107G (DGLA) to patients with moderate to severe atopic dermatitis. The primary objective of the study was to compare the efficacy of orally administered DS107G capsules, versus placebo, in the treatment of adult patients with moderate to severe atopic dermatitis. The secondary objective was to assess the safety of orally administered DS107G capsules, versus placebo, in adult patients with moderate to severe atopic dermatitis. The primary study endpoint was the proportion of patients achieving an IGA (Investigator Global Assessment) of 0 (clear) or 1 (almost clear) and a decrease of at least 2 points in IGA at week 8. Secondary study endpoints included:
# Approximately 100 patients with moderate to severe atopic dermatitis were included in this multicenter, double-blind, placebo controlled, phase IIa study. All subjects signed an informed consent and underwent screening for study eligibility. Subjects were randomized (1:1) at baseline visit to either receive oral DS107G 2 g or placebo, once daily for 8 weeks in a fasting state.
# Subjects visited the clinic on 6 occasions: at screening, baseline, week 2, week 4, week 8 (end of treatment/early termination) and week 10 (follow-up). All subjects exited the study at the week 10 visit. The primary efficacy variable was the proportion of patients achieving an IGA of 0 (clear) or 1 (almost clear), and a decrease of at least 2 points in IGA at week 8. Secondary efficacy variables included: IGA at other visits, pruritus (obtained from the SCORAD visual analog scale), EASI, BSA, POEM, DLQI, SCORAD and TEWL (for selected sites only). Safety was assessed through adverse events, physical examination, vital signs and safety laboratory tests (including pregnancy tests for women of childbearing potential). Pharmacokinetic samples were obtained at Baseline (Day 0), week 4 and week 8 visits in order to measure total and free DGLA plasma trough levels. Separate plasma samples were retained for later analysis of total fatty acid profile and interleukin profile.
# The EASI is a composite score ranging from 0-72 that takes into account the degree of erythema, induration/papulation, excoriation, and lichenification (each scored from 0 to 3 separately) for each of four body regions, with adjustment for the percent of BSA involved for each body region and for the proportion of the body region to the whole body. A detailed procedure of EASI score calculation is provided below.
# SCORAD is calculated as follows: Six items (erythema, edema/papulation, oozing/crusts, excoriation, lichenification, and dryness) are selected to evaluate the AD severity. The intensity of each item is graded using a 4-point scale: • 0=No symptoms • 1=Mild • 2=Moderate • 3=Severe
# Investigator's global assessment is determined as follows:
# Body Surface Area (BSA). The overall BSA affected by AD will be evaluated (from 0 to 100%) at each visit. One patient's palm represents 1% of his/her total BSA. For all study visits, except at screening, the BSA of involved skin will be measured with the SCORAD measurement and evaluated as a separate endpoint.
# The Patient-Oriented Eczema Measure (POEM) is determined using the following questionnaire:
# The Dermatology Life Quality Index (DLQI) is determined using the following questionnaire:
# Subjects who fulfilled all the inclusion and none of the exclusion criteria were accepted in the study. Each subject read and signed an informed consent form prior to any screening procedures being performed. This study involved a comparison of DS107G (DGLA) with placebo, administered orally once daily upon waking for a total duration of 8 weeks. Subjects were randomized to one of the two treatment groups in a 1:1 ratio:
# The Investigator's Global Assessment (IGA) of Disease Severity was assessed at each visit. The IGA is a global assessment of the current state of the disease. […]
# [1] = DS107 Phase 2a I.T.T. population, daily, 8 weeks
# [2] = Table 9A: title Week 4, head Week 8/ET, n=34
# [3] = Table 9A: title Week 4, head Week 8/ET, n=35
# [4] = Week 8, ITT total population, N=51
# [5] = Week 8, ITT, Moderate at baseline
# [6] = Week 8, ITT, Very Severe/Severe at baseline
# [7] = Week 8/ET, DS107G 2 g once daily, n=35
# [8] = total study population, oral, once daily, 8 weeks
smiles,measurement,setting,value
"CCCCC/C=C\C/C=C\C/C=C\CCCCCCC(=O)O [DS107G, Dihomo gamma linolenic acid]","patients classified as Responders (IGA 0 or 1 at Week 8, 2-point decrease)",African America patients,56%
same,"patients classified as Responders (IGA 0 or 1 at Week 8, 2-point decrease)",Caucasian patients,7%
same,BSA Change from Baseline,[1],−38%
same,EASI Percentage Change from Baseline,[1],−46%
same,EASI-50 (%),[1],57%
same,EASI-75 (%),[1],37%
same,IGA responder (%),[1],21%
same,Pruritus Percentage Change from Baseline,[1],−41%
same,"Percentage Change of BSA Levels From Baseline, Mean",Week 2,−6.3%
same,"Percentage Change of DLQI Scores From Baseline, Mean",Week 2,−29.5%
same,"Percentage Change of EASI Scores From Baseline, Mean",Week 2,−15.0%
same,"Percentage Change of IGA Scores From Baseline, Mean",Week 2,−11.7%
same,"Percentage Change of POEM Scores From Baseline, Mean",Week 2,−30.2%
same,"Percentage Change of SCORAD Levels From Baseline, Mean",Week 2,−12.0%
same,"Percentage Change of VAS Scores From Baseline, Mean",Week 2,−20.9%
same,"Percentage Change of BSA Levels From Baseline, Mean",Week 4,−21.9%
same,"Percentage Change of DLQI Scores From Baseline, Mean",Week 4,−50.3%
same,"Percentage Change of EASI Scores From Baseline, Mean",Week 4,−37.7%
same,"Percentage Change of IGA Scores From Baseline, Mean",Week 4,−25.7%
same,"Percentage Change of POEM Scores From Baseline, Mean",Week 4,−41.8%
same,"Percentage Change of SCORAD Levels From Baseline, Mean",Week 4,−28.8%
same,"Percentage Change of VAS Scores From Baseline, Mean",Week 4,−39.5%
same,"Percentage Change of BSA Levels From Baseline, Mean",Week 8,−38.2%
same,"Percentage Change of DLQI Scores From Baseline, Mean",Week 8,−43.2%
same,"Percentage Change of EASI Scores From Baseline, Mean",Week 8,−45.6%
same,"Percentage Change of IGA Scores From Baseline, Mean",Week 8,−38.4%
same,"Percentage Change of POEM Scores From Baseline, Mean",Week 8,−37.2%
same,"Percentage Change of SCORAD Levels From Baseline, Mean",Week 8,−36.1%
same,"Percentage Change of VAS Scores From Baseline, Mean",Week 8,−41.0%
same,"Percentage Change of BSA Levels From Baseline, Mean",Week 10,−37.7%
same,"Percentage Change of DLQI Scores From Baseline, Mean",Week 10,−53.6%
same,"Percentage Change of EASI Scores From Baseline, Mean",Week 10,−49.5%
same,"Percentage Change of IGA Scores From Baseline, Mean",Week 10,−37.5%
same,"Percentage Change of POEM Scores From Baseline, Mean",Week 10,−43.4%
same,"Percentage Change of SCORAD Levels From Baseline, Mean",Week 10,−40.5%
same,"Percentage Change of VAS Scores From Baseline, Mean",Week 10,−44.2%
same,primary end point (two point drop in IGA and end of treatment IGA of 0 or 1) vs placebo,"ITT analysis, p=0.057",clinically significant trend
same,"visual analog scale of pruritus, Change from baseline, LSMEANS",[2],−2.1
same,"visual analog scale of pruritus, Change from baseline, Mean",[2],−2.8
same,"visual analog scale of pruritus, Change from baseline, Median",[2],−2.0
same,"visual analog scale of pruritus, Percent Change from Baseline, Mean",[2],−41.0%
same,"visual analog scale of pruritus, Percent Change from Baseline, Median",[2],−35.3%
same,"visual analog scale of pruritus, Actual, Mean",[3],4.6
same,"visual analog scale of pruritus, Actual, Median",[3],4.0
same,"visual analog scale of pruritus, Change from baseline, LSMEANS","Table 9B: Week 8/ET, n=34",−2.1
same,"visual analog scale of pruritus, Change from baseline, Mean","Table 9B: Week 8/ET, n=34",−2.8
same,"visual analog scale of pruritus, Change from baseline, Median","Table 9B: Week 8/ET, n=34",−2.0
same,"visual analog scale of pruritus, Percent Change from Baseline, Mean","Table 9B: Week 8/ET, n=34",−41.0%
same,"visual analog scale of pruritus, Percent Change from Baseline, Median","Table 9B: Week 8/ET, n=34",−35.3%
same,"visual analog scale of pruritus, Actual, Mean","Table 9B: Week 8/ET, n=35",4.6
same,"visual analog scale of pruritus, Actual, Median","Table 9B: Week 8/ET, n=35",4.0
same,IGA score 0—Clear,[4],4 ( 7.8) n (%)
same,IGA score 1—Almost Clear,[4],7 ( 13.7) n (%)
same,IGA score 2—Mild,[4],9 ( 17.6) n (%)
same,IGA score 3—Moderate,[4],10 ( 19.6) n (%)
same,IGA score 4—Severe,[4],4 ( 7.8) n (%)
same,IGA score 5—Very Severe,[4],1 ( 2.0) n (%)
same,Non-Responders,[4],37 ( 72.5) n (%)
same,Responders (decrease of at least 2 points in IGA score at Week 8),[4],14 ( 27.5) n (%)
same,IGA score 0—Clear,[5],4 (13.8) n (%)
same,IGA score 1—Almost Clear,[5],4 (13.8) n (%)
same,IGA score 2—Mild,[5],6 (20.7) n (%)
same,IGA score 3—Moderate,[5],4 (13.8) n (%)
same,IGA score 4—Severe,[5],1 (3.4) n (%)
same,IGA score 5—Very Severe,[5],0 (0.0) n (%)
same,Non-Responders,[5],21 (72.4) n (%)
same,Responders,[5],8 (27.6) n (%)
same,IGA score 0—Clear,[6],0 (0.0) n (%)
same,IGA score 1—Almost Clear,[6],3 (13.6) n (%)
same,IGA score 2—Mild,[6],3 (13.6) n (%)
same,IGA score 3—Moderate,[6],6 (27.3) n (%)
same,IGA score 4—Severe,[6],3 (13.6) n (%)
same,IGA score 5—Very Severe,[6],1 (4.5) n (%)
same,Non-Responders,[6],16 (72.7) n (%)
same,Responders,[6],6 (27.3) n (%)
same,"EASI, Actual, Mean",[7],9.3
same,"EASI, Actual, Median",[7],7.4
same,"EASI, Change from baseline, LSMEANS (ANCOVA)",[7],−8.0
same,"EASI, Change from baseline, Mean",[7],−9.4
same,"EASI, Change from baseline, Median",[7],−8.0
same,"EASI, Percent Change from Baseline, Mean",[7],−45.6%
same,"EASI, Percent Change from Baseline, Median",[7],−62.7%
same,"SCORAD, Change from baseline, LSMEANS","Week 8/ET, n=34",−18.7
same,"SCORAD, Change from baseline, Mean","Week 8/ET, n=34",−21.1
same,"SCORAD, Change from baseline, Median","Week 8/ET, n=34",−21.2
same,"SCORAD, Percent Change from Baseline, Mean","Week 8/ET, n=34",−36.1%
same,"SCORAD, Percent Change from Baseline, Median","Week 8/ET, n=34",−43.4%
same,"SCORAD, Actual, Mean","Week 8/ET, n=35",35.9
same,"SCORAD, Actual, Median","Week 8/ET, n=35",28.6
same,"body surface area affected by atopic dermatitis, Actual, Mean","Week 8/ET, n=35",17.6
same,"body surface area affected by atopic dermatitis, Actual, Median","Week 8/ET, n=35",12.0
same,"body surface area affected by atopic dermatitis, Change from baseline, LSMEANS","Week 8/ET, n=35",−8.9
same,"body surface area affected by atopic dermatitis, Change from baseline, Mean","Week 8/ET, n=35",−9.6
same,"body surface area affected by atopic dermatitis, Change from baseline, Median","Week 8/ET, n=35",−8.0
same,"body surface area affected by atopic dermatitis, Percent Change from Baseline, Mean","Week 8/ET, n=35",−38.2%
same,"body surface area affected by atopic dermatitis, Percent Change from Baseline, Median","Week 8/ET, n=35",−50.0%
same,response rate in subjects having low baseline eosinophil counts,in vivo,higher response rate
same,primary end point (two point drop in IGA and end of treatment IGA of 0 or 1) vs placebo,"moderate patient subgroup (n=67), p=0.036",statistically significant improvement
same,EASI (% decrease),[8],46%
same,IGA responders (%),[8],22%
same,Pruritus delta (as measured by VAS),[8],41%
same,Pruritus score decrease (as measured by VAS),[8],c. (2.8)
same,SCORAD (% decrease),[8],36%
same,pruritus score [visual analog scale] vs placebo,"within four weeks of dosing, p=0.015",statistically significant reduction of itch

# Source: US20180333382A1, “PHARMACEUTICAL COMPOSITIONS COMPRISING DGLA AND USE OF SAME” (DS Biopharma Limited, priority 2017, published 2018)
